The results in this text go back to PMC4154947, “Polyisoprenylated methylated protein methyl esterase as a putative drug target for androgen-insensitive prostate cancer” (ecancermedicalscience, 2014).

The target of test [1] is T1, Polyisoprenylated methylated protein methyl esterase (PMPMEase; human carboxylesterase 1, hCE1) (Homo sapiens, UniProt P23141).
T1 construct: gene CES1
T1 sequence (P23141 18-567): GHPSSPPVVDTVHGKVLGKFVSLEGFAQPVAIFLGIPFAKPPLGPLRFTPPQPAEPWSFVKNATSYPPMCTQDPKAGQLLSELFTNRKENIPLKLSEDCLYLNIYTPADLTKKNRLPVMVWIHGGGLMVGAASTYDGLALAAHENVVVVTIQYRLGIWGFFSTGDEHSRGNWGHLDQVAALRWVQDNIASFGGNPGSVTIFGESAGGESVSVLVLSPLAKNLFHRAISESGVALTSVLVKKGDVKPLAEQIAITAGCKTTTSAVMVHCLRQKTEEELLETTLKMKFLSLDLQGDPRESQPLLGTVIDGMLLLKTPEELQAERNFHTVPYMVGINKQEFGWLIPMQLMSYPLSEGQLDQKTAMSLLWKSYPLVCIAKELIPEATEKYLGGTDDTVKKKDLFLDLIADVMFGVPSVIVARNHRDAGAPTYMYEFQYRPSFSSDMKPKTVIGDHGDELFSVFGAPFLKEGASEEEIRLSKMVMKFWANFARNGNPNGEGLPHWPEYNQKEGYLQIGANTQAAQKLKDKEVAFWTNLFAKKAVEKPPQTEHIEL
The test can be described thus: HPLC assay of RD-PNB hydrolysis in prostate cancer cell lysates (PC-3 value). It counts as biochemical.

The target of test [2] is T1, Polyisoprenylated methylated protein methyl esterase (PMPMEase; human carboxylesterase 1, hCE1). The test is described as follows: HPLC-UV detection of substrate hydrolysis by prostate cell lysates. It counts as cell-based.

Molecule `CC(C)=CCC/C(C)=C/CC/C(C)=C/CSCCS(=O)(=O)F` [L-28, 2-trans, trans-farnesylthioethanesulfonyl fluoride] displayed an IC50 in test [1] of 3 µM.

With `COC(=O)[C@H](CSC/C=C(\C)CC/C=C(\C)CCC=C(C)C)NC(=O)c1ccc([N+](=O)[O-])cc1` [RD-PNB, N-(4-nitrobenzoyl)-S-trans, trans-farnesyl-L-cysteine methyl ester], the “HPLC-UV detection of substrate hydrolysis by prostate cell lysates” value in test [2] is “Incubation of the specific PMPMEase substrate, RD-PNB, with lysates from the respective cell lines resulted in the hydrolysis”.
